Patent US6887899B1, “Method for controlling house dust mites with a composition comprising phenylethyl propionate” (Ecosmart Technologies, Inc., priority 1999, dated 2005)

System: American home dust mites
Test: Efficacy of plant essential oils (actives) against dust mite, residue on glass petri dish
Description: Efficacy of different plant essential oils (actives) against dust mite
Two different concentrations of each test actives were used
50 dust mites (American home dust mites) were used per replicate. Four replicates were used per test concentration
Chemicals were applied to the surface of 100 mm glass petri dish in acetone. The control plates received same volume of solvent (acetone) only. All plates left at room temperature for air dry. After 1 hr (complete evaporation of acetone) the dust mites were transferred to each plate.
test actives were tested with and without 2 parts of piperonyl butoxide (PBO), known synergist.
Data are the mean of four replicates (200 dust mites per test concentration per chemical)

[1] = 25 ppm, 5 min, W/PBO (2 parts piperonyl butoxide)
[2] = 25 ppm, 15 min, W/PBO (2 parts piperonyl butoxide)
[3] = 25 ppm, 60 min, W/PBO (2 parts piperonyl butoxide)
[4] = 250 ppm, 5 min, W/PBO (2 parts piperonyl butoxide)

SMILES | % Mortality (25 ppm, 5 min, W/O PBO) | % Mortality [1] | % Mortality (25 ppm, 15 min, W/O PBO) | % Mortality [2] | % Mortality (25 ppm, 60 min, W/O PBO) | % Mortality [3] | % Mortality (250 ppm, 5 min, W/O PBO) | % Mortality [4] | % Mortality (250 ppm, 15 min, W/O PBO) | % Mortality (250 ppm, 60 min, W/O PBO) | % Mortality (250 ppm, 15 min, W/PBO (2 parts piperonyl butoxide)) | % Mortality (250 ppm, 60 min, W/PBO (2 parts piperonyl butoxide))
OCc1ccccc1 [BA, Benzyl Alcohol] | 53% | 68% | 61.0% | 73.0% | 68.0% | 79.0% | 90% | 100% | 98% | 100% | – | –
CCC(=O)OCCc1ccccc1 [PEP, phenethyl propionate] | 54% | 63% | 60.0% | 69.0% | 62.0% | 78.0% | 80% | 97% | 92% | 99% | 99% | 100%
Cc1ccc(C(C)C)c(O)c1 [thymol] | 67% | 80% | 72.2% | 85.0% | 80.0% | 87.5% | 100% | 100% | – | – | – | –
